Assay [1] addresses rhIDO (recombinant human IDO) (Homo sapiens, UniProt P14902). In words: Enzyme assay using rhIDO (rate of kynurenine production). The assay is classed as biochemical. Particulars: 2 h; final concentration of the compound 10 μM; rate relative to reaction without compound; read-out: rhIDO-mediated kynurenine production. In a few lines:
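rhIDO preincubated with compound 10 min at 37 °C in phosphate buffer with ascorbate, methylene blue and catalase; started with 2 mM tryptophan solution (stock) and run 120 min at 37 °C. Stopped with TCA and heated to convert N-formylkynurenine; kynurenine read at 490 nm after p-dimethylbenzaldehyde, background-subtracted, as % of no-compound control.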

Assay [2] addresses rhTDO (recombinant human TDO) (Homo sapiens, UniProt P48775). In words: Enzyme assay using rhTDO (rate of kynurenine production). The format is biochemical. The note with it: 2 h; final concentration of the compound 10 μM; rate relative to reaction without compound; read-out: rhTDO-mediated kynurenine production. In a few lines:
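Kynurenine output, as percent of untreated control after background subtraction, read at 490 nm with p-dimethylbenzaldehyde following TCA quench and 15 min heating at 50 °C. Reaction: rhTDO with compound, 10 min preincubation then 120 min at 37 °C, started by 20 mM tryptophan stock, in phosphate/ascorbate/methylene blue/catalase.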

The next assay deals with T1, IDO in A431 cells (Homo sapiens, UniProt P14902).
T1 construct: endogenous in cells; host or cells: A431 cells, IFN-γ stimulated
T1 sequence (P14902 whole entry): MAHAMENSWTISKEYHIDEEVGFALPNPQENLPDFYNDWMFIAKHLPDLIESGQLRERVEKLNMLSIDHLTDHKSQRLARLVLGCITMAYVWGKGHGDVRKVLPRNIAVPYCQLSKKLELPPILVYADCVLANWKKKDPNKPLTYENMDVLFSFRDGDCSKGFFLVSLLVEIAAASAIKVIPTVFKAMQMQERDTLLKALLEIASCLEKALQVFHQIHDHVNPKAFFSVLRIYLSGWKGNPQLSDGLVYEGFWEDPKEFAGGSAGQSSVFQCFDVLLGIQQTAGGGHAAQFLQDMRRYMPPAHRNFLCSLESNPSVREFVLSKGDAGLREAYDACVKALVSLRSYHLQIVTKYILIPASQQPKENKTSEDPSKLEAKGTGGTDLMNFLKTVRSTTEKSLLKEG
The assay can be described thus: IDO cell-based assay, kynurenine production in IFN-γ stimulated A431 cells. The note with it: A-431, 24 h; final concentration of the compound 10 μM; rate relative to culture without compound. In a few lines: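 A431 cells were cultured 24 h, then preincubated 1 h with compound in medium containing 178 μM L-tryptophan, and stimulated with IFN-γ (diluted to 100 ng/mL before addition) for 24 h. Kynurenine was measured by p-dimethylbenzaldehyde absorbance at 460 nm, background-subtracted, and expressed as % production versus no-compound control.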

The target of a further assay is T2, TDO in A172 cells (Homo sapiens, UniProt P48775).
T2 construct: endogenous in cells; host or cells: A172 cells
T2 sequence (P48775 whole entry): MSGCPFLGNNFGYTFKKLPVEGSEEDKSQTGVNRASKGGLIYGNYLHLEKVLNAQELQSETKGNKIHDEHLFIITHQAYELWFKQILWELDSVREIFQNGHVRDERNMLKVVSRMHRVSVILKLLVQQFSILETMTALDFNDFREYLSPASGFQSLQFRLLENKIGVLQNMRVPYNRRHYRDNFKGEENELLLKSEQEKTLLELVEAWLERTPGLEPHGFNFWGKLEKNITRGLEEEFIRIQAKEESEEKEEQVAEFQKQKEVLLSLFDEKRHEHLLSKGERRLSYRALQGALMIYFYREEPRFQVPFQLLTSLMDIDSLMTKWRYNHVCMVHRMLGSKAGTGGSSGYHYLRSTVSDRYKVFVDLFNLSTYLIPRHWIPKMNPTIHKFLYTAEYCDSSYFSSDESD
In words: TDO cell-based assay, kynurenine production in A172 cells. The note with it: A 172; final concentration of the compound 10 μM; rate relative to culture without compound. In a few lines: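 A172 cells were preincubated with compound for 1 h, then given L-tryptophan (final 524 μM) for 24 h at 37 °C. Kynurenine was read at 460 nm after p-dimethylbenzaldehyde/TCA reagent, background-subtracted, and expressed as % of no-compound production.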

Drawing on patent US12209079B2 (GENERAL INCORPORATED ASSOCIATION PHARMA VALLEY PROJECT …, priority 2017, dated 2025), this text covers remaining activity for 20 compounds.

Structures can show the parent of a compound that is named as a salt.

Chain of rhTDO (recombinant human TDO) (P48775 whole entry): as above
Chain of rhIDO (recombinant human IDO) (P14902 whole entry): as the sequence (P14902 whole entry) above

Take `N=C(N)[Se]Cc1cc(Br)ccc1C(=O)NCC1CC1` [Compound 107, 5-Bromo-2-((cyclopropylmethyl)carbamoyl)benzyl carbamimidoselenoate hydrobromide]: the remaining activity at 10 µM worked out at 97% in assay [1], 103% in assay [2], 44% on IDO in A431 cells and 12% on TDO in A172 cells.

As for `N=C(N)[Se]Cc1ccccc1C[Se]C(=N)N` [Compound 108, 1,2-Phenylenebis(methylene) dicarbamimidoselenoate dihydrobromide], the remaining activity at 10 µM amounted to 51% in assay [1], 55% in assay [2], 5% at IDO in A431 cells and 41% at TDO in A172 cells.

Consider `N=C(N)[Se]Cc1ccc(Cl)cc1C[Se]C(=N)N` [Compound 109, (4-Chloro-1,2-phenylene)bis(methylene) dicarbamimidoselenoate dihydrobromide], for which the remaining activity at 10 µM turned out to be 61% in assay [1], 57% in assay [2], 19% on IDO in A431 cells and 63% at TDO in A172 cells.

As to `N#Cc1ccc(CNC(=O)c2cc(Br)ccc2C[Se]C(=N)N)cc1` [Compound 110, 4-Bromo-2-((4-cyanobenzyl)carbamoyl)benzyl carbamimidoselenoate hydrobromide], the remaining activity at 10 µM in assay [1] is 61%; in assay [2] it was 59%; on IDO in A431 cells, 13%; at TDO in A172 cells it was 38%.

On to `N#Cc1ccc(CNC(=O)c2cccc(Br)c2CSC(=N)N)cc1` [Compound 111, 2-Bromo-6-((4-cyanobenzyl)carbamoyl)benzyl carbamimidothioate hydrobromide], for which the remaining activity at 10 µM in assay [1] came out at 17%; in assay [2], 122%; on IDO in A431 cells, 53%; at TDO in A172 cells it was 87%.

For `N=C(N)[Se]Cc1nc2ccccc2nc1C[Se]C(=N)N` [Compound 112, Quinoxaline-2,3-diylbis(methylene) dicarbamimidoselenoate dihydrobromide], the remaining activity at 10 µM in assay [1] was 94%; in assay [2] it was 90%; at IDO in A431 cells it was -2%; at TDO in A172 cells it was 5%.

As to `N#Cc1ccc(CNC(=O)c2ccc(Br)cc2C[Se]C(=N)N)cc1` [Compound 113, 5-Bromo-2-((4-cyanobenzyl)carbamoyl)benzyl carbamimidoselenoate hydrobromide], the remaining activity at 10 µM in assay [1] turned out to be 92%; in assay [2], 58%; at IDO in A431 cells, 73%; on TDO in A172 cells it was 44%.

For the compound `N=C(N)SCc1cc(Br)ccc1C(=O)NCc1ccc(C(F)(F)F)cc1` [Compound 114, 5-Bromo-2-((4-(trifluoromethyl)benzyl)carbamoyl)benzyl carbamimidothioate hydrobromide], the remaining activity at 10 µM in assay [1] was found to be 98%; in assay [2], 36%; at IDO in A431 cells, 17%; at TDO in A172 cells, 37%.

On to `COCCNC(=O)c1ccc(Br)cc1CSC(=N)N` [Compound 115, 5-Bromo-2-((2-methoxyethyl)carbamoyl)benzyl carbamimidothioate hydrobromide], for which the remaining activity at 10 µM in assay [1] was found to be 91%; in assay [2] it was 63%; on IDO in A431 cells, 121%; on TDO in A172 cells, 71%.

Turning to `N=C(N)SCc1cc(Br)ccc1C(=O)NCc1ccc(F)c(Cl)c1` [Compound 116, 5-Bromo-2-((3-chloro-4-fluorobenzyl)carbamoyl)benzyl carbamimidothioate hydrobromide], the remaining activity at 10 µM in assay [1] was found to be 85%; in assay [2], 21%; on IDO in A431 cells it was 92%; at TDO in A172 cells, 55%.

`N=C(N)SCc1ccc(Br)cc1C(=O)NCc1ccc(Br)cc1` [Compound 117, 4-Bromo-2-((4-bromobenzyl)carbamoyl)benzyl carbamimidothioate hydrobromide]: the remaining activity at 10 µM in assay [1] came out at 2%; in assay [2], 9%; at IDO in A431 cells, 7%; on TDO in A172 cells, 31%.

Regarding `N#Cc1ccc(CNC(=O)c2cc(Br)ccc2CS/C(N)=N/c2ccc(F)c(Cl)c2)cc1` [Compound 118, 4-Bromo-2-((4-cyanobenzyl)carbamoyl)benzyl (E)-N′-(3-chloro-4-fluorophenyl)carbamimidothioate hydrobromide], the remaining activity at 10 µM was found to be 15% in assay [1], 35% in assay [2], 3% on IDO in A431 cells and 20% at TDO in A172 cells.

As for `N#Cc1ccc(CNC(=O)c2cc(Br)ccc2CS/C(N)=N/c2ccc(Br)cc2)cc1` [Compound 119, 4-Bromo-2-((4-cyanobenzyl)carbamoyl)benzyl (E)-N′-(4-bromophenyl)carbamimidothioate hydrobromide], the remaining activity at 10 µM in assay [1] was determined as 25%; in assay [2], 50%; at IDO in A431 cells, 4%; on TDO in A172 cells, 12%.

Consider `Fc1ccc(CSC2=NCN(CC3CC3)CN2)c(CSC2=NCN(CC3CC3)CN2)c1` [Compound 120, 6,6′-(((4-Fluoro-1,2-phenylene)bis(methylene))bis(sulfanediyl))bis(3-(cyclopropylmethyl)-1,2,3,4-tetrahydro-1,3,5-triazine)], for which the remaining activity at 10 µM in assay [1] was found to be 41%; in assay [2] it was 8%; at IDO in A431 cells, 14%; on TDO in A172 cells, 7%.

Turning to `Fc1ccc(CSC2=NCN(CC3CCCCC3)CN2)c(CSC2=NCN(CC3CCCCC3)CN2)c1` [Compound 121, 6,6′-(((4-Fluoro-1,2-phenylene)bis(methylene))bis(sulfanediyl))bis(3-(cyclohexylmethyl)-1,2,3,4-tetrahydro-1,3,5-triazine)], the remaining activity at 10 µM in assay [1] was 29%; in assay [2], 7%; on IDO in A431 cells, 14%; at TDO in A172 cells, 11%.

Take `N/C(=N\c1ccc(F)c(Cl)c1)SCc1ccccc1CS/C(N)=N/c1ccc(F)c(Cl)c1` [Compound 122, 1,2-Phenylenebis(methylene) (E,E)-bis(N-(3-chloro-4-fluorophenyl)carbamimidothioate) dihydrobromide]: the remaining activity at 10 µM in assay [1] is -3%; in assay [2] it was 8%; on IDO in A431 cells, 2%; on TDO in A172 cells, 7%.

As to `N/C(=N\c1ccc(Cl)cc1)SCc1cc(Cl)c(Cl)cc1CS/C(N)=N/c1ccc(Cl)cc1` [Compound 123, (4,5-Dichloro-1,2-phenylene)bis(methylene) (E,E)-bis(N′-(4-chlorophenyl)carbamimidothioate) dihydrobromide], the remaining activity at 10 µM in assay [1] was -2%; in assay [2] it was 10%; at IDO in A431 cells, 12%; on TDO in A172 cells, 4%.

`COc1ccc(/N=C(\N)SCc2cc(Cl)c(Cl)cc2CS/C(N)=N/c2ccc(OC)cc2)cc1` [Compound 124, (4,5-Dichloro-1,2-phenylene)bis(methylene) (E,E)-bis(N′-(4-methoxyphenyl)carbamimidothioate) dihydrobromide]: the remaining activity at 10 µM in assay [1] is -1%; in assay [2], 20%; at IDO in A431 cells, 10%; on TDO in A172 cells, 0%.

For `N/C(=N\c1cccc(Cl)c1)SCc1cc(Cl)c(Cl)cc1CS/C(N)=N/c1cccc(Cl)c1` [Compound 125, (4,5-Dichloro-1,2-phenylene)bis(methylene) (E,E)-bis(N′-(3-chlorophenyl)carbamimidothioate) dihydrobromide], the remaining activity at 10 µM in assay [1] was -2%; in assay [2] it was 7%; at IDO in A431 cells, 11%; on TDO in A172 cells it was 3%.

As to `N/C(=N\c1ccc(Br)cc1)SCc1ccc(F)cc1CS/C(N)=N/c1ccc(Br)cc1` [Compound 126, (4-Fluoro-1,2-phenylene)bis(methylene) (E,E)-bis(N′-(4-bromophenyl)carbamimidothioate) dihydrobromide], the remaining activity at 10 µM is -1% in assay [1], 6% in assay [2], 13% on IDO in A431 cells and 10% at TDO in A172 cells.
